Here are results for 23 compounds from patent publication US12655145B2, “P2X3 modulators” (GlaxoSmithKline Intellectual Property (No. 3) Limited, priority 2020, dated 2026).

Usually IC50 stands for the concentration needed to halve the response being measured.

For one assay, the target named is T1, P2X3 (Homo sapiens, UniProt P56373).
T1 construct: expressed in transfected cells; host or cells: HEK293
T1 sequence (P56373 1-397): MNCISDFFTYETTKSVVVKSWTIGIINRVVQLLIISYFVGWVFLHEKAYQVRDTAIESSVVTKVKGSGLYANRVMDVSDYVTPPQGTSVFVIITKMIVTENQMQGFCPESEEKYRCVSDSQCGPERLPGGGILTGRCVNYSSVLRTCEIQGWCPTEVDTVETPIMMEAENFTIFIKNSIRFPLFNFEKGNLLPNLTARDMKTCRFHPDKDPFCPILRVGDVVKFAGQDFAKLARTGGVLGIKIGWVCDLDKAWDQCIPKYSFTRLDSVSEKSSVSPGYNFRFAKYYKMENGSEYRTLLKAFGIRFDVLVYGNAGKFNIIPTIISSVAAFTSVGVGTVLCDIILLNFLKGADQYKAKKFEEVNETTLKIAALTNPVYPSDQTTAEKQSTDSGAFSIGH
Put plainly: P2X3 Antagonist Assay (FLIPR calcium, Fluo-8, HEK293 cells transfected with human ion channel cDNAs, αβ-meATP stimulation). In kind it is cell-based. To be noted: @ 1 μM, antagonist mode, αβ-meATP 3 μM. How it is done: Example 59: P2X3 Antagonist Assay
HEK293 were transiently or stably transfected with human ion channel cDNAs as indicated in section 1. Stable transfectants were selected by coexpression with the antibiotic-resistance gene(s) incorporated into the expression plasmid(s). Selection pressure was maintained by including selection antibiotics in the culture medium. HEK293 cells were cultured in Dulbecco's Modified Eagle Medium/Nutrient Mixture F-12 (D-MEM/F-12) supplemented with 10% fetal bovine serum, 100 U/mL penicillin G sodium, 100 J·Lg/mL streptomycin sulfate and appropriate selection antibiotics.
The effect of each test article to act as an antagonist was evaluated. Each test article was evaluated at eight (8) concentrations (0.001, 0.003, 0.01, 0.03, 0.1, 0.3, 1 and 3 μM, n=3) with 4 replicates for each concentration. Experiments were performed with the FLIPR calcium sensitive dye kit (Fluo-8 dye, AAT, Bioquest) according to the manufacturer's instructions. • Dye-loading: Growth media will be removed and add 20 μL of Mg^++-free HBPS containing Fluo-8 for 30 min at 37° C. • Preincubation (FLIPR step 1): Adding 5× (5 μL) test, vehicle, or control article solutions in Mg^+-free HBPS to each well for 20 minutes at room temperature, protected from light. • Stimulation (FLIPR step 2): After pre-incubation, cells will be stimulated with 6× (5 μL) αβ-meATP at final concentration of 3 μM prepared in Mg^++-free HBPS. • Non-Specific Calcium Influx (FLIPR step 3): 5 minutes after stimulation solution addition, non-specific calcium influx will be activated by adding 7×(5 μL) ionomycin at a final concentration of 5 μM. Fluorescence will be recorded continuously during FLIPR steps 2 and 3. • Positive Control Antagonist: PPADS (1 mM).
Data acquisition was performed via the FLIPRControl software that is supplied with the FLIPR System (MDS-AT) and data was analyzed using Microsoft Excel2003 (Microsoft Corp., Redmond, WA).
`CNC(=O)c1cc(F)c(-c2nc3cc(C)ccn3c2CC2CCCC(NC(C)=O)C2)c(F)c1` (single isomer, unassigned) [trans-A22 (Peak 2), 4-(3-((3-acetamidocyclohexyl)methyl)-7-methylimidazo[1,2-a]pyridin-2-yl)-3,5-difluoro-N-methylbenzamide]: the “P2X3 IC50 column, given as % @ 1 μM” value was 17% @ 1 μM.

Staying with this assay, now noted: HEK293, @ 1 μM, antagonist mode, αβ-meATP 3 μM, read-out: P2X3 IC50 column, given as % @ 1 μM.
Regarding `CNC(=O)c1cc(F)c(-c2nc3cc(C)ccn3c2CC2CCCC(NC(C)=O)C2)c(F)c1` (single isomer, unassigned) [trans-A22 (Peak 1), 4-(3-((3-acetamidocyclohexyl)methyl)-7-methylimidazo[1,2-a]pyridin-2-yl)-3,5-difluoro-N-methylbenzamide], the inhibition at 1 µM was found to be 22%.

Consider `CNC(=O)c1cc(F)c(-c2[nH]c3cc(C)ccc3c2C[C@H]2CN(C(=O)OC)CCO2)c(F)c1` [Compound A24, methyl (S)-2-((2-(2,6-difluoro-4-(methylcarbamoyl)phenyl)6-methyl-1H-indol-3-yl)methyl)morpholine-4-carboxylate], for which the inhibition at 1 µM stood at 10%.

Staying with this assay, now noted: antagonist mode, αβ-meATP 3 μM.
For the compound `CNC(=O)c1cc(F)c(-c2nc3cc(C)ccn3c2CC2CCCC(NC(C)=O)C2)c(F)c1` (single isomer, unassigned) [cis-A22 (Peak 1), 4-(3-((3-acetamidocyclohexyl)methyl)-7-methylimidazo[1,2-a]pyridin-2-yl)-3,5-difluoro-N-methylbenzamide], the half-maximal inhibitory concentration (IC50) was less than 0.1 µM.

As to `CNC(=O)c1cc(F)c(-c2nc3cc(C)ccn3c2CC2CCCC(NC(C)=O)C2)c(F)c1` (single isomer, unassigned) [cis-A22 (Peak 2), 4-(3-((3-acetamidocyclohexyl)methyl)-7-methylimidazo[1,2-a]pyridin-2-yl)-3,5-difluoro-N-methylbenzamide], the IC50 was less than 0.1 µM.

Regarding `CNC(=O)c1cc(F)c(-c2nc3cc(C)ccn3c2C[C@H]2CCCN(C(=O)OC)C2)c(F)c1` [(R)-A19, methyl (R)-3-((2-(2,6-difluoro-4-(methylcarbamoyl)phenyl)-7-methylimidazo[1,2-a]pyridin-3-yl)methyl)piperidine-1-carboxylate], the IC50 is less than 0.1 µM.

With `CNC(=O)c1cc(F)c(-c2nc3cc(C)ccn3c2C[C@@H]2CCCN(C(=O)OC)C2)c(F)c1` [(S)-A19, methyl (S)-3-((2-(2,6-difluoro-4-(methylcarbamoyl)phenyl)-7-methylimidazo[1,2-a]pyridin-3-yl)methyl)piperidine-1-carboxylate], the IC50 was less than 0.1 µM.

Regarding `CNC(=O)c1cc(F)c(-c2nc3cc(F)ccn3c2C[C@H]2CN(C(=O)OC)CCO2)c(F)c1` [Compound A1, methyl (S)-2-((2-(2,6-difluoro-4-(methylcarbamoyl)phenyl)-7-fluoroimidazo[1,2-a]pyridin-3-yl)methyl)morpholine-4-carboxylate], the IC50 lay in the range of 0.1 to 1 µM.

With `CNC(=O)c1cc(F)c(-c2nc3cc(Cl)ccn3c2C[C@H]2CN(C(=O)OC)CCO2)c(F)c1` [Compound A2, methyl (S)-2-((7-chloro-2-(2,6-difluoro-4-(methyl-carb-amoyl)-phenyl)-imidazo[1,2-a]pyridin-3-yl)methyl)morpholine-4-carboxylate], the IC50 was less than 0.1 µM.

For the compound `CNC(=O)c1cc(F)c(-c2nc3cc(OC)ccn3c2C[C@H]2CN(C(=O)OC)CCO2)c(F)c1` [Compound A3, methyl (S)-2-((2-(2,6-difluoro-4-(methylcarbamoyl)phenyl)-7-methoxyimidazo[1,2-a]pyridin-3-yl)methyl)morpholine-4-carboxylate], the IC50 was less than 0.1 µM.

Regarding `CNC(=O)c1cc(F)c(-c2nc3cc(C(F)F)ccn3c2C[C@H]2CN(C(=O)OC)CCO2)c(F)c1` [Compound A4, methyl (S)-2-((2-(2,6-difluoro-4-(methylcarbamoyl)phenyl)-7-(di-fluoromethyl)imidazo[1,2-a]pyridin-3-yl)methyl)morpholine-4-carboxylate], the IC50 was less than 0.1 µM.

With `CNC(=O)c1cc(F)c(-c2nc3cc(C(F)(F)F)ccn3c2C[C@H]2CN(C(=O)OC)CCO2)c(F)c1` [Compound A5, methyl (S)-2-((2-(2,6-difluoro-4-(methylcarbamoyl)phenyl)-7-(trifluoromethyl)imidazo[1,2-a]pyridin-3-yl)methyl)morpholine-4-carboxylate], the IC50 was in the range of 0.1 to 1 µM.

Regarding `CNC(=O)c1cc(F)c(-c2nc3cc(C)ccn3c2C[C@H]2CN(C(=O)OC)CCO2)c(F)c1F` [Compound A6, methyl (S)-2-((7-methyl-2-(2,3,6-trifluoro-4-(methylcarbamoyl)-phenyl)imidazo[1,2-a]pyridin-3-yl)methyl)morpholine-4-carboxylate], the IC50 is less than 0.1 µM.

Turning to `CNC(=O)c1ccc(-c2nc3cc(Cl)ccn3c2C[C@H]2CN(C(=O)OC)CCO2)c(C)c1` [Compound A7, methyl (S)-2-((7-chloro-2-(2-methyl-4-(methylcarbamoyl)phenyl)-imidazo[1,2-a]pyridin-3-yl)methyl)morpholine-4-carboxylate], the half-inhibitory concentration (IC50) was less than 0.1 µM.

As for `CNC(=O)c1ccc(-c2nc3cc(C)ccn3c2C[C@H]2CN(C(=O)OC)CCO2)c(Cl)c1` [Compound A8, methyl (S)-2-((2-(2-chloro-4-(methylcarbamoyl)phenyl)-7-methyl-imidazo[1,2-a]pyridin-3-yl)methyl)morpholine-4-carboxylate], the IC50 was less than 0.1 µM.

`CNC(=O)c1ccc(-c2nc3cc(Cl)ccn3c2C[C@H]2CN(C(=O)OC)CCO2)c(Cl)c1` [Compound A9, methyl (S)-2-((2-(2-chloro-4-(methylcarbamoyl)phenyl)-7-chloro-imidazo[1,2-a]pyridin-3-yl)methyl)morpholine-4-carboxylate]: the IC50 is less than 0.1 µM.

In the case of `CNC(=O)c1ccc(-c2nc3cc(C)ccn3c2C[C@H]2CN(C(=O)OC)CCO2)c(F)c1` [Compound A10, methyl (S)-2-((2-(2-fluoro-4-(methylcarbamoyl)phenyl)-7-methylimidazo[1,2-a]pyridin-3-yl)methyl)morpholine-4-carboxylate], the IC50 is less than 0.1 µM.

For the compound `CNC(=O)c1ccc(-c2nc3cc(Cl)ccn3c2C[C@H]2CN(C(=O)OC)CCO2)c(F)c1` [Compound A11, methyl (S)-2-((2-(2-fluoro-4-(methylcarbamoyl)phenyl)-7-chloroimidazo[1,2-a]pyridin-3-yl)methyl)morpholine-4-carboxylate], the IC50 was less than 0.1 µM.

With `CNC(=O)c1cc(C)c(-c2nc3cc(C)ccn3c2C[C@H]2CN(C(=O)OC)CCO2)cc1F` [Compound A12, methyl (S)-2-((2-(5-fluoro-2-methyl-4-(methylcarbamoyl)phenyl)-7-methylimidazo[1,2-a]pyridin-3-yl)methyl)morpholine-4-carboxylate], the IC50 was less than 0.1 µM.

As to `CNC(=O)c1cc(C)c(-c2nc3cc(Cl)ccn3c2C[C@H]2CN(C(=O)OC)CCO2)cc1F` [Compound A13, methyl (S)-2-((7-chloro-2-(5-fluoro-2-methyl-4-(methylcarbamoyl)phenyl)imidazo[1,2-a]pyridin-3-yl)methyl)morpholine-4-carboxylate], the IC50 is less than 0.1 µM.

As to `CNC(=O)c1cc(F)c(-c2nc3cc(C)ccn3c2CC2CCN(C(=O)OC)CC2)c(F)c1` [Compound A20, methyl 4-((2-(2,6-difluoro-4-(methylcarbamoyl)phenyl)-7-methylimidazo[1,2-a]pyridin-3-yl)methyl)piperidine-1-carboxylate], the IC50 is less than 0.1 µM.

With `CNC(=O)c1cc(F)c(-c2cc3cc(C)ccc3n2C[C@H]2CN(C(=O)OC)CCO2)c(F)c1` [Compound A23, methyl (S)-2-((2-(2,6-difluoro-4-(methylcarbamoyl)phenyl)-5-methyl-1H-indol-1-yl)methyl)morpholine-4-carboxylate], the IC50 fell in the range of 0.1 to 1 µM.

For the compound `CNC(=O)c1cc(F)c(-c2cc3cc(C)cnc3n2C[C@H]2CN(C(=O)OC)CCO2)c(F)c1` [Compound A25, methyl (S)-2-((2-(2,6-difluoro-4-(methylcarbamoyl)phenyl)-5-methyl-1H-pyrrolo[2,3-b]pyridin-1-yl)methyl)morpholine-4-carboxylate], the IC50 is greater than 1 µM.
